{
  "source": "patent US20080075796A1",
  "about": "“Compositions and Methods for Controlling Insects” (TyraTech, Inc., priority 2003, published 2008)",
  "key": {"[1]": {"biological_target": "T1, Or83b receptor (Drosophila melanogaster, UniProt Q9VNB5)", "T1 construct": "His (from vector pAc5.1/V5-His B) (C); expressed in transfected cells", "T1 sequence (Q9VNB5 1-486)": "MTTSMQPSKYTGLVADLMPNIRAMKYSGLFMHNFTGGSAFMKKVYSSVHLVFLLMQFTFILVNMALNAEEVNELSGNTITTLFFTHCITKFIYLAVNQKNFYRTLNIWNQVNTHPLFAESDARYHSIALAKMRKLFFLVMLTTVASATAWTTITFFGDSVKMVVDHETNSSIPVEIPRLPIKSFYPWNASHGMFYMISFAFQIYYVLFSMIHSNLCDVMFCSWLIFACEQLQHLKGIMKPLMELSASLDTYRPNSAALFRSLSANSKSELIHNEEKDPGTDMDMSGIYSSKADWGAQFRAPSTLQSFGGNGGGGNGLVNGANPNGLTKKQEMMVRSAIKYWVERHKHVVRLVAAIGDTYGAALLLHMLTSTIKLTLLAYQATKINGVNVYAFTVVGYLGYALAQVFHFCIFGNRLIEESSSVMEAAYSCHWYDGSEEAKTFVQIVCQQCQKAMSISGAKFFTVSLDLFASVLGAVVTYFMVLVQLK", "test": "Saturation binding of ^3H-tyramine to membranes from Schneider cells expressing Or83b receptor", "method": "To address whether Or83b receptor and Or43a receptor contain a specific binding site for tyramine, membranes expressing Or83b receptor or Or43a receptor are prepared from cells expressing either receptor, as described above, and used for competitive binding with ^3H-tyramine. The binding assay protocol is exactly as described for cells expressing TyrR, as described above."}, "[2]": {"biological_target": "T1, Or83b receptor", "test": "Intracellular Ca^2+ mobilization in Schneider cells expressing Or83b receptor", "type": "cell-based", "conditions": "ionomycin about 2 μM, tyramine about 10 μM", "method": "Intracellular calcium ion concentrations ([Ca^2+]i) are measured by using the acetoxymethyl (AM) ester of the fluorescent indicator fura-2 (Enan, et al., Biochem. Pharmacol vol 51, 447-454). In this study, cells expressing tyramine receptor are grown under standard conditions. A cell suspension is prepared in assay buffer (140 mM NaCL, 10 mM HEPES, 10 mM glucose, 5 mM KCl, 1 mM CaCl2, 1 mM MgCl2) and cell number adjusted to about 2×10^6 cells per ml. Briefly, about 1.0 ml cell suspension (about 2×10^6 cells) is incubated with about 5 μM Fura 2/AM for about 30 min at about 28° C. After incubation, the cells are pelleted at about 3700 rpm for about 10 sec at room temperature and then resuspended in about 1.5 ml assay buffer. [Ca^2+]i changes are analyzed in spectrofluorometer in the presence and absence of test chemicals. Excitation wave lengths are about 340 nm (generated by Ca^2+-bound fura-2) and about 380 nm (corresponding to Ca^2+-free fura-2). The fluorescence intensity is monitored at an emission wave length of about 510 nm. No absorbance of fluorescence artifacts are observed with any of the compounds used. The ratio of about 340/380 nm is calculated and plotted as a function of time.\nIntracellular Ca^2+ levels are measured using the method described above in Example 3."}, "[3]": {"biological_target": "T2, tyramine receptor (TyrR) (Drosophila melanogaster, UniProt P22270)", "T2 sequence (P22270 27-601)": "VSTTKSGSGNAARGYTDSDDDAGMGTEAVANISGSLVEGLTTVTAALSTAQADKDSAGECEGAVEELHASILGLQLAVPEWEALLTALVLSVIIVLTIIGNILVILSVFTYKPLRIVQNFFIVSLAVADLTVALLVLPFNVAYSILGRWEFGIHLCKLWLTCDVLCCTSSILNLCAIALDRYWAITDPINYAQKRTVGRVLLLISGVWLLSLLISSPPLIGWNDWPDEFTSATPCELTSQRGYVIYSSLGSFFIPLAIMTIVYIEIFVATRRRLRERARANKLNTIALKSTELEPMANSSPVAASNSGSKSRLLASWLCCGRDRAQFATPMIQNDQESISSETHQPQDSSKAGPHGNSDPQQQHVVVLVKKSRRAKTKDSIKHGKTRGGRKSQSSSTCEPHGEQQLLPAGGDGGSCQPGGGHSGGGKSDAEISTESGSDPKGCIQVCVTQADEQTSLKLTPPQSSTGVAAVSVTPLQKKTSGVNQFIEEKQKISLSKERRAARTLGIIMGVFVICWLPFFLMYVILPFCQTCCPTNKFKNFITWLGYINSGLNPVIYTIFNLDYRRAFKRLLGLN", "test": "Saturation binding of ^3H-tyramine to membranes from Schneider cells expressing tyramine receptor", "procedure": "A preliminary study to determine the optimum concentration of membrane protein for receptor binding activity is performed. […] After about 1 hr incubation at room temperature, reactions are terminated by filtration through GF/C filters (VWR), which have been previously soaked in about 0.3% polyethyleneimine (PEI). The filters are washed one time with about 4 ml ice cold Iris buffer and air dried before the retained radioactivity is measured using LSC. Binding data is analyzed by curve fitting (GraphPad software, Prism).\nReceptor binding reactions are incubated for about 1 hr at room temperature (RT) in restricted light. Reactions are terminated by filtration through OF/C filters (VWR), which have been previously soaked in about 0.3% polyethyleneimine (PEI). The filters are washed one time with about 4 ml ice cold Tris buffer and air dried before retained radioactivity is measured using LSC. Binding data is analyzed by curve fitting (GraphPad software, Prism)."}},
  "data": [
    {"molecule": "NCCc1ccc(O)cc1", "note": "[tyramine]", "values": [
      {"measurement": "Kd", "setting": "[1]", "value": "~96.9", "unit": "nM"},
      {"measurement": "Ki", "setting": "[1]", "value": 96.9, "unit": "nM"},
      {"measurement": "increase in intracellular calcium", "setting": "[2]", "value": "~1.18", "unit": "fold"},
      {"measurement": "Ki", "setting": "[3]", "value": 1.26, "unit": "nM"},
      {"measurement": "Bmax", "setting": "[3]; saturation binding, membranes expressing TyrR, listed as Tyramine", "value": 0.679, "unit": "pmol/mg protein"}
    ]}
  ]
}
